Results published in patent publication US9422299B2, “Substituted [1,2,4]triazolo[4,3-a]pyrazines as selective NK-3 receptor antagonists” (EUROSCREEN SA, priority 2013, dated 2016).

Legend:
human NK-3 receptor [1] = target: T1, human NK-3 receptor (Homo sapiens (Human), UniProt P29371); assay: 3H-SB222200 binding competition assay with human NK-3 receptor; conditions: read-out: hNK-3 (Ki)
Method: The affinity of compounds of the invention for the human NK-3 receptor was determined by measuring the ability of compounds of the invention to competitively and reversibly displace a well-characterized NK-3 radioligand in a concentration-dependent manner.
^3H-SB222200 Binding Competition Assay with Human NK-3 Receptor
Membranes were prepared from Chinese hamster ovary recombinant cells stably expressing the human NK-3 receptor. The membranes were incubated with 5 nM ^3H-SB222200 (ARC) in a HEPES 25 mM/NaCl 0.1M/CaCl2 1 mM/MgCl2 5 mM/BSA 0.5%/Saponin 10 μg/ml buffer at pH 7.4 and various concentrations of compounds of the invention. The amount of ^3H-SB222200 bound to the receptor was determined after filtration by the quantification of membrane associated radioactivity using the TopCount-NXT reader (Packard).

hERG channel = hERG channel (Homo sapiens (Human), UniProt Q12809); assay: hERG inhibition assay (manual patch-clamp, HEK 293 cells); format: cell-based; conditions: 5 minutes of exposure, read-out: CardioSafety (hERG IC50)
Sequence of hERG channel (Q12809 whole entry): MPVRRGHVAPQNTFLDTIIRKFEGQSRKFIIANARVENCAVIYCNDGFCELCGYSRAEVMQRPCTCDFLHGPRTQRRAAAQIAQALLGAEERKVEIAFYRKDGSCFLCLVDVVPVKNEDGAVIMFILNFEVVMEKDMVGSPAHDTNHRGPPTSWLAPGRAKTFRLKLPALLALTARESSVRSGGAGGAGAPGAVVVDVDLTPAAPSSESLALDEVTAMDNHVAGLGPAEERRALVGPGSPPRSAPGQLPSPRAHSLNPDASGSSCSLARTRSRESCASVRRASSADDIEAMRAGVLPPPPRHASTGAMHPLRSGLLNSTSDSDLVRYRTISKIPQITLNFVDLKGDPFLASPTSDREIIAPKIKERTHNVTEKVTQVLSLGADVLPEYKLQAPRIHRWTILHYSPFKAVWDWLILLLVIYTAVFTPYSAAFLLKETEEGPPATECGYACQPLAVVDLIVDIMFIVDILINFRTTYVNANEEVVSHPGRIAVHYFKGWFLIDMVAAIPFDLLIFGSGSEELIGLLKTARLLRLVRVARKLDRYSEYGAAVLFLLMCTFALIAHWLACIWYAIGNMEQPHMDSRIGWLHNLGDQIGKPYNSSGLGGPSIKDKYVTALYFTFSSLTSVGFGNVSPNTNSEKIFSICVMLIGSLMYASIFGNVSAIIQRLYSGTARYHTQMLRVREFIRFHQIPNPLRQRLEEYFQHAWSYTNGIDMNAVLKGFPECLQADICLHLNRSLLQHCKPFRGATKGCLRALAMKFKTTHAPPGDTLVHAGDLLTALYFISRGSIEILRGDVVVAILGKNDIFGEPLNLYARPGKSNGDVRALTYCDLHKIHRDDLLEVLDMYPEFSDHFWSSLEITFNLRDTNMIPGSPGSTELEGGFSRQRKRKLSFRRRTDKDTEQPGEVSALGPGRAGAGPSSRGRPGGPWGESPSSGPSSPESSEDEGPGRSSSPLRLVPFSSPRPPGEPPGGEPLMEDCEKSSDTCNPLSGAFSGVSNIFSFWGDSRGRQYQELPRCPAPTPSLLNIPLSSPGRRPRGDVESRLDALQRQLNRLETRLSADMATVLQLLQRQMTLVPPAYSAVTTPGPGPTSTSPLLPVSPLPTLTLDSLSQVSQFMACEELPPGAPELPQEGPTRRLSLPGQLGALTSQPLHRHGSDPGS
Method: The human ether-a-go-go related gene (hERG) encodes the inward rectifying voltage gated potassium channel in the heart (IKr) which is involved in cardiac repolarisation. […] IKr current inhibition accounts for the vast majority of known cases of drug-induced QT-prolongation.
Whole-cell currents (acquisition by manual patch-clamp) elicited during a voltage pulse were recorded in baseline conditions and following application of tested compounds (5 minutes of exposure). The concentrations of tested compounds (0.3 μM; 3 μM; 10 μM; 30 μM) reflect a range believed to exceed the concentrations at expected efficacy doses in preclinical models.
The current density recorded were normalized against the baseline conditions and corrected for solvent effect and time-dependent current run-down using experimental design in test compound free conditions.

human NK-1 receptor = human NK-1 receptor (Homo sapiens (Human), UniProt P25103); assay: Selectivity assay: [3H] substance P binding, human NK-1; conditions: 2 nM [3H] substance P, CHO membranes; read-out: hNK-1 (Ki)
Sequence of human NK-1 receptor (P25103 whole entry): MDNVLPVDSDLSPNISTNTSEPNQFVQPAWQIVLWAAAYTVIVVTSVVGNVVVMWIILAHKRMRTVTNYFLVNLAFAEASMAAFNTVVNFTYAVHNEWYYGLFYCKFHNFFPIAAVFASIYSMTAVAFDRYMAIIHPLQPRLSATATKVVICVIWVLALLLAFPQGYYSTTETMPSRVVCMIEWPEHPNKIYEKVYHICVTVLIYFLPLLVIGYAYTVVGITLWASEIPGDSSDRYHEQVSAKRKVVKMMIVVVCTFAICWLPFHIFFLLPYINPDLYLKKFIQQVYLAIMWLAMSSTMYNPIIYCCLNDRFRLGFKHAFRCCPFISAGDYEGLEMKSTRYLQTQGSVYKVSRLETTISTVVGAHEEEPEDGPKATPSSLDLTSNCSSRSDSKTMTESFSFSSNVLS
Method: Selectivity of the compounds of the invention was determined over the other human NK receptors, namely NK-1 and NK-2 receptors.
The affinity of compounds of the invention for the NK-1 receptor was evaluated in CHO recombinant cells which express the human NK-1 receptor. Membrane suspensions were prepared from these cells. The following radioligand: [^3H] substance P (PerkinElmer Cat#NET111520) was used in this assay. Binding assays were performed in a 50 mM Tris/5 mM MnCl2/150 mM NaCl/0.1% BSA at pH 7.4. Binding assays consisted of 25 μl of membrane suspension (approximately 5 μg of protein/well in a 96 well plate), 50 μl of compound or reference ligand (Substance P) at increasing concentrations (diluted in assay buffer) and 2 nM [^3H] substance P. The plate was incubated 60 min at 25° C. in a water bath and then filtered over GF/C filters (Perkin Elmer, 6005174, presoaked in 0.5% PEI for 2 h at room temperature) with a Filtration unit (Perkin Elmer). The radioactivity retained on the filters was measured by using the TopCount-NXT reader (Packard).

plasma protein = assay: Determination of plasma protein binding (equilibrium dialysis); format: in vitro ADME; conditions: 4 hours at 37° C.
Source text: Determination of Plasma Protein Binding
The pharmacokinetic and pharmacodynamic properties of chemicals/drugs are largely a function of the reversible binding of chemicals to plasma or serum proteins. […] Consequently, the extent of the plasma protein binding (PPB) of a compound influences its action as well as its distribution and elimination.
The determination of plasma protein binding (PPB) of a compound is enabled by equilibrium dialysis, an accepted and standard method for reliable estimation of the non-bound drug fraction in plasma. RED (Rapid Equilibrium Dialysis) device insert is made of two side-by-side chambers separated by an O-ring-sealed vertical cylinder of dialysis membrane (MWCO˜8,000). […] After 4 hours incubation at 37° C. under shaking, an aliquot is removed from each chamber and analyzed by a LC-MS/MS procedure enables the determination of both free and bound drug.
The “free fraction” may be calculated as 100%-% rPPB (i.e. the complementary percentage of that disclosed in Table 4, corresponding to the drug concentration that is unbound and therefore available to engage biological target and elicit pharmacological activity).

human NK-2 receptor = human NK-2 receptor (Homo sapiens (Human), UniProt P21452); assay: Selectivity assay: [125I]-Neurokinin A binding, human NK-2; conditions: 0.1 nM [125I]-Neurokinin A, CHO membranes; read-out: hNK-2 (Ki)
Sequence of human NK-2 receptor (P21452 whole entry): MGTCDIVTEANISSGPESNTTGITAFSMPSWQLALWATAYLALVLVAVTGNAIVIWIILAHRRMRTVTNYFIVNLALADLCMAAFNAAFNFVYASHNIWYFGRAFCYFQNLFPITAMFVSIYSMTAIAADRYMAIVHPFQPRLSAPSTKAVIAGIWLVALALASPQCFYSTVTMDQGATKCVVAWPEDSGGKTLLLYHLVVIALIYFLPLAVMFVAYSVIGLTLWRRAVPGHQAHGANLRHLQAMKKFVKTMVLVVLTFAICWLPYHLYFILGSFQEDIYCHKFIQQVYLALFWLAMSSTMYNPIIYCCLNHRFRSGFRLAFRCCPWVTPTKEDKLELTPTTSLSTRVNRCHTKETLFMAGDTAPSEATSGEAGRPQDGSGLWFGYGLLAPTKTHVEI
Method: The affinity of compounds of the invention for the NK-2 receptor was evaluated in CHO recombinant cells which express the human NK-2 receptor. Membrane suspensions were prepared from these cells. […] Binding assays were performed in a 25 mM HEPES/1 mM CaCl2/5 mM MgCl2/0.5% BSA/10 μg/ml saponin, at pH 7.4. […] The radioactivity retained on the filters was measured by using the TopCount-NXT reader (Packard).

human NK-3 receptor [2] = target: T1, human NK-3 receptor; assay: Aequorin functional assay with human NK-3 receptor (antagonist testing); format: cell-based; conditions: read-out: Functional assay: Aequorin assay with human NK-3 receptor hNK-3 - AEQ (antagonist IC50)
Method: Aequorin Assay with Human NK-3 Receptor
Changes in intracellular calcium levels are a recognized indicator of G protein-coupled receptor activity. The efficacy of compounds of the invention to inhibit NKA-mediated NK-3 receptor activation was assessed by an in vitro Aequorin functional assay. Chinese Hamster Ovary recombinant cells expressing the human NK-3 receptor and a construct that encodes the photoprotein apoaequorin were used for this assay. In the presence of the cofactor coelenterazine, apoaequorin emits a measurable luminescence that is proportional to the amount of intracellular (cytoplasmic) free calcium.
The antagonist activity of compounds of the invention is measured following pre-incubation (3 minutes) of the compound (at various concentrations) with the cells, followed by addition of the reference agonist (NKA) at a final concentration equivalent to the EC80 (3 nM) and recording of emitted light (FDSS 6000 Hamamatsu) over the subsequent 90-second period. The intensity of the emitted light is integrated using the reader software. Compound antagonist activity is measured based on the concentration-dependent inhibition of the luminescence response to the addition of Neurokinin A.

T1 sequence (P29371 whole entry): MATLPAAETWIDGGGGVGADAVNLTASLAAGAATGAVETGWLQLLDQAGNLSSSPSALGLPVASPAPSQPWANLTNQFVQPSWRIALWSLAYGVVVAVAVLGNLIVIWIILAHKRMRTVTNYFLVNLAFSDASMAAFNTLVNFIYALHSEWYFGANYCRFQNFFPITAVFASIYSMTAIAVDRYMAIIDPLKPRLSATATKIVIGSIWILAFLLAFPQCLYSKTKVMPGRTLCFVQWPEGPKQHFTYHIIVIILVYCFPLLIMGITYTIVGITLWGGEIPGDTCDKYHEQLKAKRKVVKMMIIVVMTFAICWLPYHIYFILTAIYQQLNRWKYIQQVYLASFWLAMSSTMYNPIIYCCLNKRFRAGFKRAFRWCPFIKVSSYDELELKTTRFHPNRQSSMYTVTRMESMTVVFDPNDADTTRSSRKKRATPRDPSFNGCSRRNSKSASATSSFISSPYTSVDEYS

For COc1cccc(C(=O)N2CCn3c(-c4nc(C)ns4)nnc3[C@H]2C)c1 [Compound 27, (R)-(3-methoxyphenyl)(8-methyl-3-(3-methyl-1,2,4-thiadiazol-5-yl)-5,6-dihydro-[1,2,4]triazolo[4,3-a]pyrazin-7(8H)-yl)methanone], the Ki (human NK-3 receptor [1]) was 0.1 µM, the IC50 (hERG channel) was ≥ 70 µM and the Ki (human NK-1 receptor) was > 30 µM. The “Exposure (% rPPB), bound drug fraction to the plasma protein” value (plasma protein) was 24%, the Ki (human NK-2 receptor) was > 30 µM and the IC50 (human NK-3 receptor [2]) was 0.22 µM.
